Results from paper PMC11594246, “Nitrilase GiNIT from Gibberella intermedia Efficiently Degrades Nitriles Derived from Rapeseed Meal Glucosinolate” (International Journal of Molecular Sciences, 2024).

Columns and labels:
rRrNIT = molecular target: T1, rRrNIT (Rhodococcus rhodochrous, UniProt Q02068); assay: specific activity, Bertholet ammonia assay; type: biochemical; conditions: 50 mM substrate, pH 7.5, 45 °C
T1 construct: synthetic gene expressed in E. coli BL21(DE3), purified
T1 sequence (Q02068 1-383): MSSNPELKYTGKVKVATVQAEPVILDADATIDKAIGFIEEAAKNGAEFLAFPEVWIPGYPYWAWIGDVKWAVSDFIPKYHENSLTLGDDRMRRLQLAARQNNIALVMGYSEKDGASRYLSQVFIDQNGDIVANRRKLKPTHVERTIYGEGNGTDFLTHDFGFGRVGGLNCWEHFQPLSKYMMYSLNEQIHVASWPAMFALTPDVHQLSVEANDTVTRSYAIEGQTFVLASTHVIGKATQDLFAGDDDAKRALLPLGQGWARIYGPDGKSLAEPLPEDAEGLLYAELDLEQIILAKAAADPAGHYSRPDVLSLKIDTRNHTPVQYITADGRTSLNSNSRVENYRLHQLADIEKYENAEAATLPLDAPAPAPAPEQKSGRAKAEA

rBdNIT = molecular target: T2, rBdNIT (Bradyrhizobium diazoefficiens, UniProt Q89PT3); assay: specific activity, Bertholet ammonia assay; type: biochemical; conditions: 50 mM substrate, pH 7.5, 45 °C
T2 construct: gene blr3397; synthetic gene expressed in E. coli BL21(DE3), purified
T2 sequence (Q89PT3 1-321): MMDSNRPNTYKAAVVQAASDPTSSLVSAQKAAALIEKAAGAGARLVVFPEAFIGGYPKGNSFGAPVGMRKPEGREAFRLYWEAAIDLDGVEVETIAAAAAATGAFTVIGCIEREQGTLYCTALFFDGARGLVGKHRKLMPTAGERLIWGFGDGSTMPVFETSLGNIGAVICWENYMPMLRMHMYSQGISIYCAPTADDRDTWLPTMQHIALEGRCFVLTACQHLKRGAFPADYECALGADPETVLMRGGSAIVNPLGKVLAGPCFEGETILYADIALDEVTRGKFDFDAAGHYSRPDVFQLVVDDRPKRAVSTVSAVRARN

Structure (SMILES) | specific activity, Bertholet ammonia assay (rRrNIT) | specific activity, Bertholet ammonia assay (rBdNIT)
C=CCC#N [3-butenenitrile] | rRrNIT from Rhodococcus rhodochrous | rBdNIT from Bradyrhizobium diazoefficiens
C=CCCC#N [4-pentenenitrile] | rRrNIT from Rhodococcus rhodochrous | rBdNIT from Bradyrhizobium diazoefficiens
